# *1 amine or outer side, *2 acyl side, *3 side chain or, on linkers, in order; H or OH if unused. Where a SMILES comes first, the peptide text is derived from it. Bridges are numbered along the chain shown (N, C = ends). [ ]: non-standard residue; d: D form. The star is where a group is joined. ξ: configuration not given here. ξOrn(4,5-diOH) = O=C(C(CC(O)C(O)N[*:3])N[*:1])[*:2]; ξhTyr(βξ-OH,γξ-OH) = NC(C(=O)O)C(O)C(O)c1ccc(O)cc1; ξPro(3ξ-OH,4ξ-Me) = CC1CNC(C(=O)O)C1O; X2 = O=C(C=Cc1ccc(N[*:1])cc1)[*:2]; Palmitoyl = CCCCCCCCCCCCCCCC(=O)*; X6 = O=C(Cc1ccc(N[*:1])cc1)[*:2]; X3 = CCCCCCCCOc1ccc(CC(=O)*)cc1; X5 = CCCCCCCOc1ccc(CCC(=O)*)cc1; X1 = CCCCCC=CCC=CCCCCCCCC(=O)*; X4 = CCCCCOc1ccc(CCC(=O)*)cc1; Hyp = O=C(O)[CH]1C[CH](O)CN1; Lauroyl = CCCCCCCCCCCC(=O)*; 4Abz = Nc1ccc(C(=O)O)cc1
# Target: T1, ECB deacylase (Actinoplanes utahensis, UniProt P29958)
# T1 construct: ECB deacylase is an 81-kilodalton (KD) heterodimer comprising 63-KD and 18 KD subunits; made in house; host or cells: Actinoplanes utahensis (native producer, not recombinant); enzyme solubilized from whole cells with salt and purified
# T1 sequence (P29958 230-786 limits assumed): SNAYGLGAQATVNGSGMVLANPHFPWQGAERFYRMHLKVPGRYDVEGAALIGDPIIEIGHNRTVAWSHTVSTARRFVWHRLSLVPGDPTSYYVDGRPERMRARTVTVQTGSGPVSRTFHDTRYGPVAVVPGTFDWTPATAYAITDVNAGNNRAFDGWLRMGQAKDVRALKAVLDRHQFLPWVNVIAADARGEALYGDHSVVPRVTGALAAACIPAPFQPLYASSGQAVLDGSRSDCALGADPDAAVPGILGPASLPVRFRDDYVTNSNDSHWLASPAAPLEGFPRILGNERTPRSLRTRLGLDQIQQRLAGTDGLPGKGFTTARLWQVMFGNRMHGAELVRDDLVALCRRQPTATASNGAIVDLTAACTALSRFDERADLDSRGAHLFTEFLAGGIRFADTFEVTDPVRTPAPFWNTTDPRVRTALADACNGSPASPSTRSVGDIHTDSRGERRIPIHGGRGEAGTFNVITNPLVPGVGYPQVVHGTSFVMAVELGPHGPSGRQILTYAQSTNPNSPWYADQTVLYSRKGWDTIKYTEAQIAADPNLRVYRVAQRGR
# T1 sequence (P29958 35-214 limits assumed): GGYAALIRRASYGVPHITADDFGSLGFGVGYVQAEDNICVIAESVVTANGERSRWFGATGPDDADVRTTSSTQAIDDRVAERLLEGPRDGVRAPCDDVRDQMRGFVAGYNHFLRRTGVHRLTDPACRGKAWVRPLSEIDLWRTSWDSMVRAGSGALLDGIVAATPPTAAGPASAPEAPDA
# Assay: ECB deacylase assay (formation of ECB nucleus by HPLC)
# Format: biochemical
# Settings: for percent activity relative to the deacylase activity of 100% for ECB itself: substrate specificity
# Method: The assay employed herein for determining and measuring deacylase activity utilizes echinocandin B as substrate. A typical reaction mixture of 1 ml for ECB deacylase assay contained […] of ECB and 0.000003 to 0.003 unit of the enzyme in 0.05M KH2 PO4, pH 6.0, in the presence of 0.68M KCl and 15% DMSO to effect solution of the ECB. The enzymatic reaction was initiated by addition of the enzyme and was continued for 20 min at 60° C. before being interrupted by the addition of phosphoric acid. After a low-speed centrifugation to remove precipitated protein, the deacylase activity was determined by monitoring the formation of ECB nucleus at 225 nm using HPLC.
# HPLC components were IBM PS/2 Model 80 and Color Display (IBM, Armonk, N.Y.), a Water 715 Ultra WISP Sample Processor (Waters Associates, Milford, Mass.), and a Beckman System Gold Programmable Solvent Module 126 and Scanning Detector Module 167 (Beckman, Fullerton, Calif.).
# The ECB nucleus was eluted from an Apex Octadecyl 3 μ column (4.6×10 cm) (Jones Chromatography, Littleton, Co.) with a mobile phase of 3.9% CH3 CN/0.1% trifluoroacetic acid and a flow rate of 1 ml/min. The nucleus formation was linear with time during the assays. […] As used herein one unit of enzyme activity is defined as the amount of the deacylase required to cause formation of one μmole of the ECB nucleus per minute from ECB under the above described reaction conditions.
Molecule,percent activity relative to the deacylase activity of 100% for ECB itself (purified deacylase) [%],substrate of the purified deacylase (in words) (purified deacylase),further results
"CCCCCCCCCCCC(=O)Nc1ccc(C=CC(=O)NC2CC(O)C(O)NC(=O)C3C(O)C(C)CN3C(=O)C(C(C)O)NC(=O)C(C(O)C(O)c3ccc(O)cc3)NC(=O)C3CC(O)CN3C(=O)C(C(C)O)NC2=O)cc1 (stereo not drawn) (Lauroyl-[X2][ξOrn(4,5-diOH)]T[Hyp][ξhTyr(βξ-OH,γξ-OH)]T[ξPro(3ξ-OH,4ξ-Me)]; lactam 2-C; configuration not given here)",15,,
"CCCCCCCCCCCC(=O)Nc1ccc(CC(=O)NC2CC(O)C(O)NC(=O)C3C(O)C(C)CN3C(=O)C(C(C)O)NC(=O)C(C(O)C(O)c3ccc(O)cc3)NC(=O)C3CC(O)CN3C(=O)C(C(C)O)NC2=O)cc1 (stereo not drawn) (Lauroyl-[X6][ξOrn(4,5-diOH)]T[Hyp][ξhTyr(βξ-OH,γξ-OH)]T[ξPro(3ξ-OH,4ξ-Me)]; lactam 2-C; configuration not given here)",5,,
"CCCCCCCCOc1ccc(CC(=O)NC2CC(O)C(O)NC(=O)C3C(O)C(C)CN3C(=O)C(C(C)O)NC(=O)C(C(O)C(O)c3ccc(O)cc3)NC(=O)C3CC(O)CN3C(=O)C(C(C)O)NC2=O)cc1 (stereo not drawn) (X3-[ξOrn(4,5-diOH)]T[Hyp][ξhTyr(βξ-OH,γξ-OH)]T[ξPro(3ξ-OH,4ξ-Me)]; lactam 1-C; configuration not given here)",30,,
"CCCCCOc1ccc(CCC(=O)NC2CC(O)C(O)NC(=O)C3C(O)C(C)CN3C(=O)C(C(C)O)NC(=O)C(C(O)C(O)c3ccc(O)cc3)NC(=O)C3CC(O)CN3C(=O)C(C(C)O)NC2=O)cc1 (stereo not drawn) (X4-[ξOrn(4,5-diOH)]T[Hyp][ξhTyr(βξ-OH,γξ-OH)]T[ξPro(3ξ-OH,4ξ-Me)]; lactam 1-C; configuration not given here)",12,,
"CCCCCCCOc1ccc(CCC(=O)NC2CC(O)C(O)NC(=O)C3C(O)C(C)CN3C(=O)C(C(C)O)NC(=O)C(C(O)C(O)c3ccc(O)cc3)NC(=O)C3CC(O)CN3C(=O)C(C(C)O)NC2=O)cc1 (stereo not drawn) (X5-[ξOrn(4,5-diOH)]T[Hyp][ξhTyr(βξ-OH,γξ-OH)]T[ξPro(3ξ-OH,4ξ-Me)]; lactam 1-C; configuration not given here)",30,,
"CCCCCCCCCCCC(=O)Nc1ccc(C(=O)NC2CC(O)C(O)NC(=O)C3C(O)C(C)CN3C(=O)C(C(C)O)NC(=O)C(C(O)C(O)c3ccc(O)cc3)NC(=O)C3CC(O)CN3C(=O)C(C(C)O)NC2=O)cc1 (stereo not drawn) ({Lauroyl-4Abz}-[ξOrn(4,5-diOH)]T[Hyp][ξhTyr(βξ-OH,γξ-OH)]T[ξPro(3ξ-OH,4ξ-Me)]; lactam 1-C; configuration not given here)",,substrates,
"CCN1C(=O)C=CC1=O [N-ethylmaleimide (NEM), N-ethylmaleimide]",,,enhancement of the rate of conversion of ECB to ECB nucleus (purified deacylase): 6-7 fold
"CCCCCCCCCCCCCCCC(=O)NC1CC(O)C(O)NC(=O)C2C(O)C(C)CN2C(=O)C(C(C)O)NC(=O)C(C(O)C(O)c2ccc(O)cc2)NC(=O)C2CC(O)CN2C(=O)C(C(C)O)NC1=O (stereo not drawn) [aculeacin] (Palmitoyl-[ξOrn(4,5-diOH)]T[Hyp][ξhTyr(βξ-OH,γξ-OH)]T[ξPro(3ξ-OH,4ξ-Me)]; lactam 1-C; configuration not given here)",,deacylates,
"CCCCCC=CCC=CCCCCCCCC(=O)NC1CC(O)C(O)NC(=O)C2C(O)C(C)CN2C(=O)C(C(C)O)NC(=O)C(C(O)C(O)c2ccc(O)cc2)NC(=O)C2CC(O)CN2C(=O)C(C(C)O)NC1=O (stereo not drawn) [echinocandin B] (X1-[ξOrn(4,5-diOH)]T[Hyp][ξhTyr(βξ-OH,γξ-OH)]T[ξPro(3ξ-OH,4ξ-Me)]; lactam 1-C; configuration not given here)",100,deacylates,ratio of ECB nucleus formed to ECB disappearance (reaction stoichiometry): about 52.4%; Vmax for the ECB reaction (purified enzyme): 10 to 11 µmol/min/mg
Daptomycin,,cleaves the fatty acid side chain,
